From patent US20210198259A1, “HETEROCYCLIC DERIVATIVES AND USE THEREOF” (C&C RESEARCH LABORATORIES, priority 2018, published 2021)
Where a name gives a salt, the structure may show the parent alone.

Target: T1, human histamine 4 receptor (hH4R) (Homo sapiens, UniProt Q9H3N8)
T1 construct: purchased Multispan
Assay: Binding affinity of human histamine 4 receptor (hH4R), [3H] histamine displacement
Details: [3H] labeled histamine, hH4R-overexpressed cell membrane
Protocol: The compounds prepared in the above Examples, the compound of Example 55 of International Publication No. WO 2010/030785 and the compound of Example 4 of International Publication No. WO 2013/048214 were diluted by 1,000 fold (v/w) with DMSO, and then 1 mL of the diluted compound solution was mixed with 99 mL of the analysis buffer solution (50 mM tris-HCl pH 7.4, 5 mM EDTA) to obtain concentration of 1 μM. […] of the prepared compound solution was transferred to each well of a 96-well plate, and then 20 mL of 100 μM histamine diluted with analysis buffer solution and 1% DMSO were transferred to each well to calculate non-specific binding and total binding degree. 15 μg of human histamine 4 receptor-overexpressed cell membrane (Multispan) was diluted into […] of analysis buffer solution and that was transferred to each well. [^3H] labeled histamine (PerkinElmer) was diluted into 10 nM concentration, 20 mL was allocated in each well, and then it was kept in a 27° C. incubator for 30 minutes. After the reaction, 100 mL of the mixture was transferred to a glass fiber plate in which 0.5% polyethylene amine was pre-soaked, and then non-binding [^3H] labeled histamine was removed in vacuum. After 6 times washing with 200 mL of washing buffer solution (50 mM tris-HCl, pH 7.4), the plate was dried in a 37° C. oven for 18 hours. […] of betaScint cocktail solution was added to each well, and after 10 minutes CPM (count per minute) value of [^3H] labeled histamine was measured by the use of Micro beta2™. The binding affinity (% inhibition) of the human histamine 4 receptor for the compounds of the present invention was analyzed by an Excel program, and the results of analysis are represented in Table 1.

Row | Structure (SMILES) | inhibition at 1 µM | Human histamine 4 receptor (hH4R) binding affinity (% inhibition at 1 μM)
1 | CNC1CN(C2=Nc3ncc(Br)cc3N3CC(=O)N=C23)C1 [Example 2, 8-bromo-4-(3-(methylamino)azetidin-1-yl)imidazo[1,2-a]pyrido[2,3-e]pyrazin-2(1H)-one] | 39.5% | 
2 | O=C1CN2C(=N1)C(N1CCN3CCCC3C1)=Nc1ncc(Br)cc12 (stereo not shown) [Example 5, 8-bromo-4-(hexahydropyrrolo[1,2-a]pyrazin-2(1H)-yl)imidazo[1,2-a]pyrido[2,3-e]pyrazin-2(1H)-one] | 55.9% | 
3 | CNC1CN(C2=Nc3ccc(NS(C)(=O)=O)cc3N3CC(=O)N=C23)C1 [Example 16, N-(4-(3-(methylamino)azetidin-1-yl)-2-oxo-1,2-dihydroimidazo[1,2-a]quinoxalin-8-yl)methanesulfonamide] | -5.98% | 
4 | CNC1CN(C2=Nc3ccc(N)cc3N3CC(=O)N=C23)C1 [Example 18, 8-amino-4-(3-(methylamino)azetidin-1-yl)imidazo[1,2-a]quinoxalin-2(1H)-one] | 34.1% | 
5 | CNC1CN(C2=Nc3ccc(Cl)cc3N3CC(=O)N=C23)C1 [Example 19, 8-chloro-4-(3-(methylamino)azetidin-1-yl)imidazo[1,2-a]quinoxalin-2(1H)-one] | 96% | 
6 | CNC1CN(C2=Nc3ncc(Cl)cc3N3CC(=O)N=C23)C1 [Example 20, 8-chloro-4-(3-(methylamino)azetidin-1-yl)imidazo[1,2-a]pyrido[2,3-e]pyrazin-2(1H)-one] | 20.5% | 
7 | CNC1CN(C2=Nc3ccc(Br)cc3N3CC(=O)N=C23)C1 [Example 21, 8-bromo-4-(3-(methylamino)azetidin-1-yl)imidazo[1,2-a]quinoxalin-2(1H)-one hydrochloride] | 95.9% | 
8 | CNC1CN(C2=Nc3cnc(Cl)cc3N3CC(=O)N=C23)C1 [Example 23, 8-chloro-4-(3-(methylamino)azetidin-1-yl)imidazo[1.2-a]pyrido[3.4-e]pyrazin-2(1H)-one hydrochloride] | 89.4% | 
9 | CNC1CN(C2=Nc3cnc(Cl)cc3N3CC(=O)N=C23)C1 [Example 24, 8-chloro-4-(3-(methylamino)azetidin-1-yl)imidazo[1,2-a]pyrido[3,4-e]pyrazin-2(1H)-one] |  | 91.9%
10 | CNC1CN(C2=Nc3cnc(Br)cc3N3CC(=O)N=C23)C1 [Example 26, 8-bromo-4-(3-(methylamino)azetidin-1-yl)imidazo[1,2-a]pyrido[3,4-e]pyrazin-2(1H)-one] | 93.4% | 
11 | CNC1CN(C2=Nc3ccc(Cl)nc3N3CC(=O)N=C23)C1 [Example 31, 2-chloro-6-(3-(methylamino)azetidin-1-yl)imidazo[1,2-a]pyrido[3,2-e]pyrazin-8(9H)-one] | 97.7% | 
12 | CNC1CN(C2=Nc3ccc(Br)nc3N3CC(=O)N=C23)C1 [Example 32, 2-bromo-6-(3-(methylamino)azetidin-1-yl)imidazo[1,2-a]pyrido[3,2-e]pyrazin-8(9H)-one] | 97.4% | 

Other lines, results leading:

Row | inhibition at 1 µM | Human histamine 4 receptor (hH4R) binding affinity (% inhibition at 1 μM) | Structure (SMILES)
13 | 9.8% |  | CN[C@@H]1CCN(C2=Nc3ncc(Br)cc3N3CC(=O)N=C23)C1 [Example 3, (R)-8-bromo-4-(3-(methylamino)pyrrolidin-1-yl)imidazo[1,2-a]pyrido[2,3-e]pyrazin-2(1H)-one]
14 | -4.38% |  | CN[C@H]1CCN(C2=Nc3ncc(Br)cc3N3CC(=O)N=C23)C1 [Example 4, (S)-8-bromo-4-(3-(methylamino)pyrrolidin-1-yl)imidazo[1.2-a]pyrido[2.3-e]pyrazin-2(1H)-one]
15 | 42.6% |  | CN1CCN(c2nc3ncc(Br)cc3n3c(=O)[nH]nc23)CC1 [Example 6, 8-bromo-4-(4-methylpiperazin-1-yl)pyrido[2,3-e][1,2,4] triazolo[4,3-a]pyrazin-1(2H)-one]
16 | -1.12% |  | CN1CCN(c2nc3ncc(Br)cc3n3[nH]c(=O)nc23)CC1 [Example 7, 8-bromo-4-(4-methylpiperazin-1-yl)pyrido[2,3-e][1,2,4] triazolo[1,5-a]pyrazin-2(1H)-one]
17 | 88.9% |  | CN1CCN(C2=Nc3nc(Cl)c(Br)cc3N3CC(=O)N=C23)CC1 [Example 8, 8-bromo-7-chloro-4-(4-methylpiperazin-1-yl)imidazo[1,2-a]pyrido[2,3-e]pyrazin-2(1H)-one]
18 | 94.4% |  | CN1CCN(C2=Nc3nc(F)c(Br)cc3N3CC(=O)N=C23)CC1 [Example 9, 8-bromo-7-fluoro-4-(4-methylpiperazin-1-yl)imidazo[1.2-a]pyrido[2,3-e]pyrazin-2(1H)-one]
19 | 44.8% |  | CN1CCN(C2=Nc3ccc(N)cc3N3CC(=O)N=C23)CC1 [Example 11, 8-amino-4-(4-methylpiperazin-1-yl)imidazo[1,2-a]quinoxalin-2(1H)-one]
20 | 52.6% |  | CN1CCN(C2=Nc3ccc(Br)cc3N3CC(=O)NN=C23)CC1 [Example 14, 9-bromo-5-(4-methylpiperazin-1-yl)-1H -[1,2,4]triazino[43-a]quinoxalin-2(3H)-one]
21 | 99.2% |  | CN1CCN(C2=Nc3ccc(Br)c(Br)c3N3CC(=O)N=C23)CC1 [Example 15, 8,9-dibromo-4-(4-methylpiperazin-1-yl)imidazo[1,2-a]quinoxalin-2(1H)-one]
22 | 87.1% |  | CN1CCN(C2=Nc3ncc(Cl)cc3N3CC(=O)N=C23)CC1 [Example 17, 8-chloro-4-(4-methylpiperazin-1-yl)imidazo[1,2-a]pyrido[2,3-e]pyrazin-2(1H)-one]
23 | 86.3% |  | CN1CCN(C2=Nc3cc(Cl)ncc3N3CC(=O)N=C23)CC1 [Example 22, 3-chloro-6-(4-methylpiperazin-1-yl)imidazo[1,2-a]pyrido[4,3-e]pyrazin-8(9H)-one]
24 | 96.9% |  | CN1CCN(C2=Nc3cnc(Br)cc3N3CC(=O)N=C23)CC1 [Example 25, 8-bromo-4-(4-methylpiperazin-1-yl)imidazo[1,2-a]pyrido[3,4-e]pyrazin-2(1H)-one]
25 | 22.6% |  | CN1CCN(C2=Nc3ncc(Br)cc3N3CS(=O)(=O)N=C23)CC1 [Example 27, 8-bromo-4-(4-methylpiperazin-1-yl)-1H-pyrido[2,3-e][1,2,4]thiadiazolo[4,3-a]pyrazin 2,2-dioxide]
26 | 96.8% |  | CN1CCN(C2=Nc3cnc(Cl)cc3N3CC(=O)N=C23)CC1 [Example 28, 8-chloro-4-(4-methylpiperazin-1-yl)imidazo[1,2-a]pyrido[3,4-e]pyrazin-2(1H)-one hydrochloride]
27 | 97.3% |  | CN1CCN(C2=Nc3ccc(Cl)nc3N3CC(=O)N=C23)CC1 [Example 29, 2-chloro-6-(4-methylpiperazin-1-yl)imidazo[1,2-a]pyrido[3,2-e]pyrazin-8(9H)-one]
28 | 93.2% |  | CN1CCN(C2=Nc3ccc(Br)nc3N3CC(=O)N=C23)CC1 [Example 30, 2-bromo-6-(4-methylpiperazin-1-yl)imidazo[1,2-a]pyrido[3,2-e]pyrazin-8(9H)-one]
